In patent publication US11021444B2, “Antiviral compounds” (priority 2013, dated 2021) one finds CC50, IC50 and EC50 data, which are given here for 16 molecules.

For series [1], the system named is HEp-2 cells. As to the kind of experiment: Cytotoxicity Determination (CCK-8, without addition of virus). Format: cell-based. The method, boiled down: (§1)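 HEp-2 cells were seeded at 1,500 cells/well one day before compound addition. Compounds were tested without virus in duplicate over 7 points from 100 μM in 1/2 steps, with 1% final DMSO, 5 days at 37 °C, 5% CO2. Viability was read by CCK-8 after 3-4 hours.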

Series [2] concerns the target recombinant RSV complex (Human respiratory syncytial virus A, UniProt P28887). Nature of the series: RSV Polymerase Inhibition Assay. Format: biochemical. The method, boiled down: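 10 nM recombinant RSV polymerase complex in Tris-HCl pH 7.5, 6 mM MgCl2 with RNA oligonucleotide template and radionucleotides, incubated 2 h at 30 °C with increasing inhibitor concentrations. Reaction stopped with EDTA; radiolabeled RNA product counted by scintillation.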

Series [3] relates to Respiratory Syncytial Virus (RSV) long strain. As to the kind of experiment: microbe, parasite or virus in culture. Format: cell-based. To be noted: human respiratory syncytial virus, Tables A and B list compounds by EC50 band. The method, boiled down: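 HEp-2 cells infected with 100 TCID50 virus per well, compounds in duplicate, 9-point 1/3 dilutions from 100 μM or 1 μM, 1% DMSO. After 5 days at 37 °C, cell viability (CPE protection) read by CCK-8 absorbance at 450 nm, 630 nm background.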

In series [4] the test system is RSV replicon. As to the kind of experiment: microbe, parasite or virus in culture. Format: cell-based. Conditions: human respiratory syncytial virus, read-out: EC50, the concentration of the drug required for reducing RSV replicon RNA by 50%. (A replicon is a self-replicating genome or part of one, used to study replication in cells.)
Series [5] can be described thus: Cytotoxicity Determination (CCK-8, without addition of virus). Format: cell-based. To be noted: human, 50% cytotoxicity concentration (CC50). The method in brief: as §1
[6] abbreviates: HEp-2, 120 h, read-out: 50% effective concentration (EC50), HEp-2 cells infected with RSV long strain, 5 days, CCK-8 readout.

Where two headings read alike, the source gives them in different places.

Sequence of recombinant RSV complex (P28887 whole entry): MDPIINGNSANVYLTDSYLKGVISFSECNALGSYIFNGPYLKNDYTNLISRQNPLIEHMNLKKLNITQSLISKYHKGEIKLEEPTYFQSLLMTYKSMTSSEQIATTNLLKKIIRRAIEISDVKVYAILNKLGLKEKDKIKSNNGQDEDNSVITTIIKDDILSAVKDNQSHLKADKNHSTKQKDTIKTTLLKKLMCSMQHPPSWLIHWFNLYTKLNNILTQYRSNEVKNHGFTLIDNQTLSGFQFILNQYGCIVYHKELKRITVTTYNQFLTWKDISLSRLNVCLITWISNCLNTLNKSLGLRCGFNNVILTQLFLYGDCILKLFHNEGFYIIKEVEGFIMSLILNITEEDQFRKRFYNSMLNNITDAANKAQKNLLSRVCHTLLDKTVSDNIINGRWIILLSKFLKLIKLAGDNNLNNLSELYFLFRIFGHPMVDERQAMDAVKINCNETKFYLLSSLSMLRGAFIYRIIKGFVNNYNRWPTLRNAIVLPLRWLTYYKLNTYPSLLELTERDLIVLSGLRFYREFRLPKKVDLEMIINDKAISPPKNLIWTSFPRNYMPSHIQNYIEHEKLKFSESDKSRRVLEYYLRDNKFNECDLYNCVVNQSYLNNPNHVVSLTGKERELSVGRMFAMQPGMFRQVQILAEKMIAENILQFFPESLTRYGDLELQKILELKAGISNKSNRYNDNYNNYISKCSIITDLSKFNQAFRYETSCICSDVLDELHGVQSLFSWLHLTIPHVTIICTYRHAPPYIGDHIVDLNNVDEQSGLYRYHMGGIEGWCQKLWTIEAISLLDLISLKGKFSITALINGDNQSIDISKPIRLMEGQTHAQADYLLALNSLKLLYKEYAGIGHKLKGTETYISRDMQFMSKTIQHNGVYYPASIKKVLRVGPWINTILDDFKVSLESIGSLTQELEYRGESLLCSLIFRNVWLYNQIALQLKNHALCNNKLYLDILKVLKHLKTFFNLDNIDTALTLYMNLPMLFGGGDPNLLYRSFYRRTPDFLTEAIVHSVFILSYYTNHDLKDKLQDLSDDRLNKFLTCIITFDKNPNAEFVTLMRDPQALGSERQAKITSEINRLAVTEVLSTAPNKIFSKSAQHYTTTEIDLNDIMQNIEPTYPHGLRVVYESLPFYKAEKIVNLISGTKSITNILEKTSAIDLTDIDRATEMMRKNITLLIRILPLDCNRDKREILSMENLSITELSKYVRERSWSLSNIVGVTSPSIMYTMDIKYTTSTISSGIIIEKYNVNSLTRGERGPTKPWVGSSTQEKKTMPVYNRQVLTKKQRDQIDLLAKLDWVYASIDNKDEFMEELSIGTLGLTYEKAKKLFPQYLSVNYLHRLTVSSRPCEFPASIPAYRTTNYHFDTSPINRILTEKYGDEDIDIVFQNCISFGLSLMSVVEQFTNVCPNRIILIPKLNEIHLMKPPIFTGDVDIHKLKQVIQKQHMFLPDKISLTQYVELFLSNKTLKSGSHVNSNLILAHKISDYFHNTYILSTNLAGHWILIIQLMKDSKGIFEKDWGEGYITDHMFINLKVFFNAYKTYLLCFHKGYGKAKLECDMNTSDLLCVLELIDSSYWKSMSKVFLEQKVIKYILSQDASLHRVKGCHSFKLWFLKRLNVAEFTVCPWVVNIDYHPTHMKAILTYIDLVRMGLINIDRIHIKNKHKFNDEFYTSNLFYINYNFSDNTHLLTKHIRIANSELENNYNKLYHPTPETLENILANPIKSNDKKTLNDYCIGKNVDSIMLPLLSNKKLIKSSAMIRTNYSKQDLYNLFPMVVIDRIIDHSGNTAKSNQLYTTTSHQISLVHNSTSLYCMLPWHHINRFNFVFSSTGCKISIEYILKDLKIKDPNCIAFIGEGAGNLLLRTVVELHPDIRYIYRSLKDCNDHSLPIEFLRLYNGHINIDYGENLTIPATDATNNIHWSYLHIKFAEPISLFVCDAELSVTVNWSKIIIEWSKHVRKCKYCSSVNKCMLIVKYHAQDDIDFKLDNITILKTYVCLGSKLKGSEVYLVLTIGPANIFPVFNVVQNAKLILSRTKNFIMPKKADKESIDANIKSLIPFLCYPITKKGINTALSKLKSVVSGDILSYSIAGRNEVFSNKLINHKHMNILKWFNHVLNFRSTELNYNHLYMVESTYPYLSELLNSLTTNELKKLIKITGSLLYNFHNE
Sequence of recombinant RSV complex (P03421 whole entry, further chain): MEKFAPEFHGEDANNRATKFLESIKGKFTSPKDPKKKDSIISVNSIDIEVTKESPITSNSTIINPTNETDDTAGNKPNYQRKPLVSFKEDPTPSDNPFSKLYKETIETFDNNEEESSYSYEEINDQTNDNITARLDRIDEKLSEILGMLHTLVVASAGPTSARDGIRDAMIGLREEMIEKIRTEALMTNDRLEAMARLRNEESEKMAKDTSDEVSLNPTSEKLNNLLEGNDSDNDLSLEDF

What is called CC50 is the concentration at which the toxic effect on the cells reaches its halfway point. The low end stands for harm at low concentration, the high end for better tolerance by the cells. On to `COc1ccc(C(O)(CNC(=O)c2ccc(O[C@H]3CCNC3=O)c(Cl)c2)C(F)(F)F)cc1-c1ccc(F)c(Cl)c1` (some centres unmarked) [Compound 260], for which the CC50 in series [1] is 10 to 100 µM.

Take `COc1cc(C(=O)NCC(O)(c2cc(C(C)(N)CF)cc(-c3ccc(F)cc3)n2)C(F)(F)F)ccc1OCC(N)=O` (single isomer, unassigned) [Compound 655]: in series [2], the IC50 was under 1 µM. Further, the CC50 in series [1] (human, 5 days) was over 100 µM.

In series [1] (human, 5 days), `COc1cc(C(=O)NCC(O)(c2ccc(OC)c(-c3ccc(F)c(Cl)c3)n2)C2CC2)ccc1OCCO` (centres unmarked) [Compound 243] displayed a CC50 of 10 to 100 µM.

In the case of `COc1cc(C(=O)NCC(O)(c2ccc(OC)c(-c3ccc(F)c(Cl)c3)n2)C(F)F)ccc1OCC(N)=O` (centres unmarked) [Compound 442], in series [2], the IC50 is under 1 µM. The EC50 in series [3] (setting [6]) and in series [4] was under 1 µM in each case. Besides, the CC50 in series [1] (human, 5 days) was 10 to 100 µM.

`COc1cc(C(=O)NCC(O)(c2ccc(OC)c(-c3ccc(F)c(Cl)c3)n2)C(F)F)ccc1OCC(N)=O` (centres unmarked) [Compound 447] had a CC50 in series [1] (human, 5 days) of over 100 µM.

`CCC(O)(CNC(=O)c1ccc(OCCF)c(OC)c1)c1ccc(OC)c(-c2ccc(F)c(Cl)c2)n1` (single isomer, unassigned) [Compound 122b]: in series [2], the IC50 is under 10 µM. The same molecule came in with a CC50 in series [1] (human, 5 days) of 10 to 100 µM.

As to `COc1cc(C(=O)NCC(O)(c2cc(C(C)(N)CF)cc(-c3ccc(F)cc3)n2)C(F)(F)F)ccc1OCC(N)=O` (single isomer, unassigned) [Compound 656], the EC50 in series [3] (setting [6]) is under 1 µM. In series [1] (human, 5 days), this molecule gave a CC50 of 10 to 100 µM.

`COc1cc(C(=O)NCC(O)(c2ccc(OC)c(-c3ccc(F)c(Cl)c3)n2)C(F)(F)F)ccc1OCC(N)=O` (single isomer, unassigned) [Compound 239]: the EC50 in series [4] was under 1 µM. Moreover, the CC50 in series [1] (human, 5 days) lay in the range of 10 to 100 µM.

Consider `CNC(C)(C)c1cc(-c2ccc(F)c(Cl)c2)nc(C(O)(CNC(=O)c2ccc(O[C@H]3CCNC3=O)c(OC)c2)C(F)(F)F)c1` (some centres unmarked) [Compound 485], for which the IC50 in series [2] was under 1 µM. The EC50 in series [3] (setting [6]) and in series [4] was under 1 µM each time. In series [5], this molecule yielded a half-maximal cytotoxic concentration (CC50) at 5 days of 10 to 100 µM.

In the case of `COc1cc(C(=O)NCC(F)(c2ccc(OC)c(-c3ccc(F)c(Cl)c3)n2)C(F)(F)F)ccc1OC[C@@H](C)O` (some centres unmarked) [Compound 342], the IC50 in series [2] is under 1 µM. Also, the EC50 in series [3] (setting [6]) and in series [4] was under 1 µM in each case. In addition, the CC50 at 5 days in series [5] lay in the range of 10 to 100 µM.

Turning to `COc1cc(C(=O)NC[C@@](O)(c2cc3c(c(-c4ccc(F)cc4)n2)OC[C@@]3(C)N)C(F)(F)F)ccc1OC[C@@H](C)O` [Compound 630], the IC50 in series [2] is under 1 µM. For the same molecule, the EC50 in series [3] (120 h, read-out: 50% effective concentration (EC50), HEp-2 cells infected with RSV long strain, 5 days, CCK-8 readout) is under 1 µM; in series [4], under 1 µM. In series [5], this molecule gave a CC50 at 5 days of 10 to 100 µM.

In the case of `COc1cc(C(=O)NCC(O)(c2cc(C(C)(C)N)cc(-c3ccc(F)cc3)n2)C(F)(F)F)ccc1OC1CC(O)C1` (centres unmarked) [Compound 596], in series [2], the IC50 was under 1 µM. The EC50 in series [3] (setting [6]) and in series [4] was under 1 µM throughout. In series [5], this molecule yielded a CC50 at 5 days of 10 to 100 µM.

Take `COc1cc(C(=O)NCC(O)(c2cc(C(C)(C)N)cc(-c3ccc(F)cc3)n2)C(F)(F)F)cnc1OCCO` (centres unmarked) [Compound 643]: in series [2], the IC50 is under 1 µM. In addition, the EC50 in series [3] (setting [6]) and in series [4] was under 1 µM in each case. The molecule also returned a CC50 at 5 days in series [5] of over 100 µM.

Regarding `COc1cc(C(=O)NC[C@](O)(c2cc(C(C)(C)N)cc(-c3ccc(F)c(Cl)c3)n2)C(F)(F)F)ccc1OC[C@@H](C)O` [Compound 552], the IC50 in series [2] is under 1 µM. In addition, the EC50 in series [3] (setting [6]) and in series [4] was under 1 µM throughout. Also, the CC50 at 5 days in series [5] was in the range of 10 to 100 µM.

As to `COc1cc(C(=O)NC[C@@](O)(c2cc(C(C)(C)N)cc(-c3ccc(F)c(Cl)c3)n2)C(F)(F)F)ccc1OC[C@@H](C)O` [Compound 551], the IC50 in series [2] is under 1 µM. The EC50 in series [3] (setting [6]) and in series [4] was under 1 µM each time. Besides, the half-maximal cytotoxic concentration (CC50) at 5 days in series [5] lay in the range of 10 to 100 µM.

Regarding `CCOC(=O)NC(C)(C)c1cc(-c2ccc(F)c(Cl)c2)nc(C(O)(CNC(=O)c2ccc(OC3CC3)c(OC)c2)C(F)(F)F)c1` (centres unmarked) [Compound 331], the IC50 in series [2] (read-out: IC50 (compound concentration at which the enzyme-catalyzed rate was reduced by 50%), 10 nM recombinant RSV complex, 2 h at 30° C., Tables E, F and G list compounds by IC50 band) was under 1 µM. For the same molecule, the EC50 in series [3] (setting [6]) and in series [4] was under 1 µM in each case. Further, the cytotoxic concentration (CC50) at 5 days in series [5] is over 100 µM.
